From patent US20260241012A1, “1,8-NAPHTHYRIDIN-2-ONE HETEROBIFUNCTIONAL BCL6 DEGRADERS” (Treeline Biosciences, Inc., priority 2022, published 2026)

Target: T1, N-terminal HiBiT tagged BCL6 (Homo sapiens, UniProt P41182)
T1 construct: expressed in transfected cells; host or cells: HT1080 (ATCC CCL-121), stably transduced with lentivirus pLV-UBC-N-HiBiT-BCL6-PGK-puro
Assay: HiBiT based degradation assay
Type: cell-based
Settings: HT1080 cells expressing N-terminal HiBiT tagged BCL6, 5 hours of incubation; for Ymin (5 hr): BCL6 degradation normalized with DMSO control; for DC50: four-parameter logistic model, read-out: EC50 (5 hr)
Procedure, shortened: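 Degradation measured by luminescence from the Nano-Glo HiBiT lytic reagent (15 min, room temperature), normalized to DMSO controls and fitted to a four-parameter curve.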

Ymin (5 hr)	DC50	SMILES
++++ (Ymin < 30%)	0.01 to 0.1 µM	CNC(=O)COc1cc2cc(Nc3nc(N4CCC(CN5CCN(c6cccc7c(C8CCC(=O)NC8=O)nn(C)c67)C[C@H]5CO)CC4)ncc3Cl)cnc2n(C(C)C)c1=O (stereo partly drawn) [Compound 231a, 2-[[6-[[5-chloro-2-[4-[[(2S)-4-[3-(2,6-dioxo-3-piperidyl)-1-methyl-indazol-7-yl]-2-(hydroxymethyl)piperazin-1-yl]methyl]-1-piperidyl]pyrimidin-4-yl]amino]-1-isopropyl-2-oxo-1,8-naphthyridin-3-yl]oxy]-N-methyl-acetamide]
++++ (Ymin < 30%)	< 0.01 µM	CNC(=O)COc1cc2cc(Nc3nc(N4CCC(CN5CCN(c6cccc7c(C8CCC(=O)NC8=O)nn(C)c67)C[C@@H]5CO)CC4)ncc3Cl)cnc2n(C(C)C)c1=O (stereo partly drawn) [Compound 231b, 2-[[6-[[5-chloro-2-[4-[[(2R)-4-[3-(2,6-dioxo-3-piperidyl)-1-methyl-indazol-7-yl]-2-(hydroxymethyl)piperazin-1-yl]methyl]-1-piperidyl]pyrimidin-4-yl]amino]-1-isopropyl-2-oxo-1,8-naphthyridin-3-yl]oxy]-N-methyl-acetamide]
+++ (30% ≤ Ymin < 50%)	< 0.01 µM	CNC(=O)COc1cc2cc(Nc3nc(N4CCC(CN5CCN(c6ccc7c(C8CCC(=O)NC8=O)nn(C)c7c6)C[C@H]5CO)CC4)ncc3Cl)cnc2n(C(C)C)c1=O (stereo partly drawn) [Compound 232a, 2-[[6-[[5-chloro-2-[4-[[(2S)-4-[3-(2,6-dioxo-3-piperidyl)-1-methyl-indazol-6-yl]-2-(hydroxymethyl)piperazin-1-yl]methyl]-1-piperidyl]pyrimidin-4-yl]amino]-1-isopropyl-2-oxo-1,8-naphthyridin-3-yl]oxy]-N-methyl-acetamide]
+++ (30% ≤ Ymin < 50%)	< 0.01 µM	CNC(=O)COc1cc2cc(Nc3nc(N4CCC(CN5CCN(c6ccc7c(C8CCC(=O)NC8=O)nn(C)c7c6)C[C@@H]5CO)CC4)ncc3Cl)cnc2n(C(C)C)c1=O (stereo partly drawn) [Compound 232b, 2-[[6-[[5-chloro-2-[4-[[(2R)-4-[3-(2,6-dioxo-3-piperidyl)-1-methyl-indazol-6-yl]-2-(hydroxymethyl)piperazin-1-yl]methyl]-1-piperidyl]pyrimidin-4-yl]amino]-1-isopropyl-2-oxo-1,8-naphthyridin-3-yl]oxy]-N-methyl-acetamide]
++++ (Ymin < 30%)	0.01 to 0.1 µM	CNC(=O)COc1cc2cc(Nc3cc(N4CCN(CC5CCN(c6cccc7c(C8CCC(=O)NC8=O)nn(C)c67)CC5)[C@H](CO)C4)ncc3Cl)cnc2n(C(C)C)c1=O (stereo partly drawn) [Compound 233a, 2-[[6-[[5-chloro-2-[(3S)-4-[[1-[3-(2,6-dioxo-3-piperidyl)-1-methyl-indazol-7-yl]-4-piperidyl]methyl]-3-(hydroxymethyl)piperazin-1-yl]-4-pyridyl]amino]-1-isopropyl-2-oxo-1,8-naphthyridin-3-yl]oxy]-N-methyl-acetamide]

Continued, compound first:

SMILES	Ymin (5 hr)	DC50
CNC(=O)COc1cc2cc(Nc3nc(N4CCN([C@H]5C[C@H](OC6CCN(c7ccc8c(C9CCC(=O)NC9=O)nn(C)c8c7)CC6)C5)CC4)ncc3Cl)cnc2n(C(C)C)c1=O (some centres unmarked) [Compound 227a, 2-((6-((5-chloro-2-(4-((1r,3r)-3-((1-(3-(2,6-dioxopiperidin-3-yl)-1-methyl-1H-indazol-6-yl)piperidin-4-yl)oxy)cyclobutyl)piperazin-1-yl)pyrimidin-4-yl)amino)-1-isopropyl-2-oxo-1,2-dihydro-1,8-naphthyridin-3-yl)oxy)-N-methylacetamide]	++ (50% ≤ Ymin < 70%)	< 0.01 µM
CNC(=O)COc1cc2cc(Nc3nc(N4CCN(C[C@@H]5CCN(c6ccc7c(C8CCC(=O)NC8=O)nn(C)c7c6)C5)CC4)ncc3Cl)cnc2n(C(C)C)c1=O (stereo partly drawn) [Compound 228a, 2-[[6-[[5-chloro-2-[4-[[(3S)-1-[3-(2,6-dioxo-3-piperidyl)-1-methyl-indazol-6-yl]pyrrolidin-3-yl]methyl]piperazin-1-yl]pyrimidin-4-yl]amino]-1-isopropyl-2-oxo-1,8-naphthyridin-3-yl]oxy]-N-methyl-acetamide]	+++ (30% ≤ Ymin < 50%)	< 0.01 µM
CNC(=O)COc1cc2cc(Nc3nc(N4CCN(C[C@H]5CCN(c6ccc7c(C8CCC(=O)NC8=O)nn(C)c7c6)C5)CC4)ncc3Cl)cnc2n(C(C)C)c1=O (stereo partly drawn) [Compound 228b, 2-((6-((5-chloro-2-(4-(((3R)-1-(3-(2,6-dioxopiperidin-3-yl)-1-methyl-1H-indazol-6-yl)pyrrolidin-3-yl)methyl)piperazin-1-yl)pyrimidin-4-yl)amino)-1-isopropyl-2-oxo-1,2-dihydro-1,8-naphthyridin-3-yl)oxy)-N-methylacetamide]	++ (50% ≤ Ymin < 70%)	0.01 to 0.1 µM
CNC(=O)COc1cc2cc(Nc3nc(N4CCC5(CC4)CC(N4CCN(c6ccc7c(C8CCC(=O)NC8=O)nn(C)c7c6)CC4)C5)ncc3Cl)cnc2n(C(C)C)c1=O (centres unmarked) [Compound 229, 2-[[6-[[5-chloro-2-[2-[4-[3-(2,6-dioxo-3-piperidyl)-1-methyl-indazol-6-yl]piperazin-1-yl]-7-azaspiro[3.5]nonan-7-yl]pyrimidin-4-yl]amino]-1-isopropyl-2-oxo-1,8-naphthyridin-3-yl]oxy]-N-methyl-acetamide]	++++ (Ymin < 30%)	< 0.01 µM
CNC(=O)COc1cc2cc(Nc3nc(N4CCC5(CC4)CC(N4CCN(c6cccc7c(C8CCC(=O)NC8=O)nn(C)c67)CC4)C5)ncc3Cl)cnc2n(C(C)C)c1=O (centres unmarked) [Compound 230, 2-[[6-[[5-chloro-2-[2-[4-[3-(2,6-dioxo-3-piperidyl)-1-methyl-indazol-7-yl]piperazin-1-yl]-7-azaspiro [3.5]nonan-7-yl]pyrimidin-4-yl]amino]-1-isopropyl-2-oxo-1,8-naphthyridin-3-yl]oxy]-N-methyl-acetamide]	+++ (30% ≤ Ymin < 50%)	0.01 to 0.1 µM
CNC(=O)COc1cc2cc(Nc3nc(N4CCC(CN5CCCN(c6ccc7c(C8CCC(=O)NC8=O)nn(C)c7c6)CC5)CC4)ncc3Cl)cnc2n(C(C)C)c1=O (centres unmarked) [Compound 235, 2-[[6-[[5-chloro-2-[4-[[4-[3-(2,6-dioxo-3-piperidyl)-1-methyl-indazol-6-yl]-1,4-diazepan-1-yl]methyl]-1-piperidyl]pyrimidin-4-yl]amino]-1-isopropyl-2-oxo-1,8-naphthyridin-3-yl]oxy]-N-methyl-acetamide]	+++ (30% ≤ Ymin < 50%)	0.01 to 0.1 µM
CNC(=O)COc1cc2cc(Nc3nc(N4CCC(CN5CCCN(c6cccc7c(C8CCC(=O)NC8=O)nn(C)c67)CC5)CC4)ncc3Cl)cnc2n(C(C)C)c1=O (centres unmarked) [Compound 236, 2-[[6-[[5-chloro-2-[4-[[4-[3-(2,6-dioxo-3-piperidyl)-1-methyl-indazol-7-yl]-1,4-diazepan-1-yl]methyl]-1-piperidyl]pyrimidin-4-yl]amino]-1-isopropyl-2-oxo-1,8-naphthyridin-3-yl]oxy]-N-methyl-acetamide]	+++ (30% ≤ Ymin < 50%)	< 0.01 µM
CNC(=O)COc1cc2cc(Nc3nc(N4CCC5(CCC(CN6CCC(c7ccc8c(C9CCC(=O)NC9=O)nn(C)c8c7)CC6)CC5)CC4)ncc3Cl)cnc2n(C(C)C)c1=O (centres unmarked) [Compound 237, 2-((6-((5-chloro-2-(9-((4-(3-(2,6-dioxopiperidin-3-yl)-1-methyl-1H-indazol-6-yl)piperidin-1-yl)methyl)-3-azaspiro[5.5]undecan-3-yl)pyrimidin-4-yl)amino)-1-isopropyl-2-oxo-1,2-dihydro-1,8-naphthyridin-3-yl)oxy)-N-methylacetamide]	++++ (Ymin < 30%)	< 0.01 µM
CNC(=O)COc1cc2cc(Nc3nc(N4CCC5(CCN(CC6CCN(c7cc8c(cc7F)c(C7CCC(=O)NC7=O)nn8C)CC6)CC5)CC4)ncc3Cl)cnc2n(C(C)C)c1=O (centres unmarked) [Compound 239, 2-((6-((5-chloro-2-(9-((1-(3-(2,6-dioxopiperidin-3-yl)-5-fluoro-1-methyl-1H-indazol-6-yl)piperidin-4-yl)methyl)-3,9-diazaspiro[5.5]undecan-3-yl)pyrimidin-4-yl)amino)-1-isopropyl-2-oxo-1,2-dihydro-1,8-naphthyridin-3-yl)oxy)-N-methylacetamide]	++++ (Ymin < 30%)	0.01 to 0.1 µM
CNC(=O)COc1cc2cc(Nc3nc(N4CCC5(CCC(CN6CCC(c7ccc8c(C9CCC(=O)NC9=O)nn(C)c8c7F)CC6)CC5)CC4)ncc3Cl)cnc2n(C(C)C)c1=O (centres unmarked) [Compound 240, 2-((6-((5-chloro-2-(9-((4-(3-(2,6-dioxopiperidin-3-yl)-7-fluoro-1-methyl-1H-indazol-6-yl)piperidin-1-yl)methyl)-3-azaspiro[5.5]undecan-3-yl)pyrimidin-4-yl)amino)-1-isopropyl-2-oxo-1,2-dihydro-1,8-naphthyridin-3-yl)oxy)-N-methylacetamide]	++++ (Ymin < 30%)	0.01 to 0.1 µM
CNC(=O)COc1cc2cc(Nc3nc(N4CCN(CC5CCN(c6cccc7c(C8CCC(=O)NC8=O)nn(C)c67)CC5(F)F)CC4)ncc3Cl)cnc2n(C(C)C)c1=O (centres unmarked) [Compound 241, 2-((6-((5-chloro-2-(4-((1-(3-(2,6-dioxopiperidin-3-yl)-1-methyl-1H-indazol-7-yl)-3,3-difluoropiperidin-4-yl)methyl)piperazin-1-yl)pyrimidin-4-yl)amino)-1-isopropyl-2-oxo-1,2-dihydro-1,8-naphthyridin-3-yl)oxy)-N-methylacetamide]	++++ (Ymin < 30%)	0.01 to 0.1 µM
